From US6455589B1, “Primary N-hydroxylamines” (The Regents of the University of California, priority 1999, dated 2002)
“Also recorded” adds a separate entry of the source. Like-named read-outs stand apart in the source and are kept apart here.

Key:
Aβ(1-40) = target: T1, Aβ(1-40) (Homo sapiens, UniProt P05067); experiment: Inhibition of Aβ(1-40) beta-pleated sheet formation (Thioflavin T fluorescence); assay type: biochemical; conditions: compound 10 μM, 12 hours
T1 construct: particularly the aggregated fibrils of synthetic Aβ(1-40)
T1 sequence (P05067 672-711 limits assumed): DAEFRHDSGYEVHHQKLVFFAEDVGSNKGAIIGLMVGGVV
Source text: The deposition of amyloid β-peptide (Aβ) is associated with the development of Alzheimer's disease. See, for example, G. G. Glenner et al. (1984) Biochem. Biophys. Res. Commun., 120:885-890; and R. E. Tanzi (1989) Ann. Med., 21:91-94. Accordingly, compounds which effectively disrupt the formation of Aβ(1-40) or Aβ(1-42) beta-pleated sheets are potentially useful for preventing and/or reversing such amyloid deposits. Thioflavin T (ThT) is known to rapidly associate with beta-pleated sheets, particularly the aggregated fibrils of synthetic Aβ(1-40). This association gives rise to a new excitation maximum at 440 nm and to enhanced emission at 490 nm.
The experiments are performed using a CytoFluor II fluorescence plate reader having the following parameters: Filters (Excitation and Emission)=440 nm/20 and 490 nm/40; Gain=75; Cycle to Cycle Time=30 min; Run Time=720 min (24 cycles) or dependent on exp. design; Plate=96 well. […] The fluorescence measurement begins when the Aβ(1-40) is added and continues for a total of 12 hours. The percent inhibition of beta-pleated sheet formation is calculated from the relative fluorescence unit difference between aggregation in the presence and in the absence of the test compounds.

IMR90 cells [1] = experiment: Replicative life span of IMR90 cells (gain in PDLs, delay of senescence); assay type: cell-based, human; conditions: 25 μM
IMR90 cells [2] = experiment: as above; assay type: cell-based, human; conditions: for Toxicity to the cells: high concentrations (100 μM)
Experimental: Cultivating IMR90 cells in culture—Normal human […] fibroblasts (IMR90) cells were obtained from the Coriell Institute for Medical Research at a population doubling level (PDL) of 10.85. The PDLs were calculated as log2(D/Do), where D and Do are defined as the density of cells at the time of harvesting and seeding, respectively. Stock cultures were grown in 100 mm Corning tissue culture dishes containing 10 ml of Dulbecco's modified Eagle's medium (DMEM) supplemented with 10% (V/V) fetal bovine serum (Hyclone). Stock cultures were split once a week when near confluence. Cells were harvested by trypsinization for 5 min at 37° C., immediately collected in 5 ml complete DMEM, washed once with 5 ml complete DMEM and incubated for 10-15 min at 37° C. to allow the cells to recover.
To test the effect of hydroxylamines on replicative life span, IMR90 cells were seeded at 0.5×106 per 100 mm dish. N-hydroxylamines (N-t-butyl hydroxylamine, N-benzyl hydroxylamine, N-methyl hydroxyl- amine) were added either individually (final concentration 10 or 100 μM) or in a combination of all three N-hydroxylamines (30 μM each). The cultures were split after 7 days and seeded with fresh medium supplemented with the hydroxylamines described above. In other experiments the medium of the cultures was replaced after 3 days of seeding with fresh medium and with fresh N-hydroxylamines, the split was done as usual after 7 days from seeding. The effect of PBN on life span was tested as in (5).

[3] = mice; cited from earlier work
IMR90 cells [4] = experiment: Steady state level of oxidants in IMR90 cells, DCFH oxidation by FACS; assay type: cell-based, human; conditions: for DCFH, AFU/PDL (rate of DCFH oxidation per PDL): 100 μM, linear regression 26-50 PDLs; for Percent of decrease in the rate of oxidants formation from control: DCFH oxidation, continuous treatment
Experimental: (§1) Analysis of the age-dependent changes in the steady state level of oxidants and mitochondrial membrane potential in IMR90 cells by FACS—[…] were trypsinized and resuspended into complete DMEM. For each condition, two tubes were prepared with 1×10^6 cells each. Tubes were then spun at 250 g for 10 min at room temperature and supernatant was replaced with 1 ml of Hanks Balanced Salt Solution (HBSS) without Ca^++ or Mg^++. Rho123 (20 μl of 525 μM stock; 10.5 μM final concentration) was added to one tube and DCFH (20 μl of 1.25 mM stock; 25 μM final concentration) was added to the other tube. The cells were then incubated in the dark in a water bath at 37° C. for 30 min followed by cell resuspension and centrifugation at 250 g for 10 min at room temperature. The supernatant (500 μl) was removed from each tube and the cells were resuspended in the remaining 500 μl before FACS analysis on a FACSort analyzer (Becton Dickinson, San Jose, Calif.). Cell Quest was used for data acquisition and analysis. The data is reported as the mean of the channel of the fluorescence histogram obtained. Fluorescence output was calibrated with LinearFlow Green Flow cytometry Intensity Calibration Particles (Molecular Probes, Eugene, Oreg.).

IMR90 cells [5] = experiment: Cellular levels of GSH and GSSG in IMR90 cells (HPLC-EC); assay type: cell-based, human; conditions: for GSH / GSH/GSSG / GSSG: 100 μM, 26-50 PDLs; for Increase of the GSH/GSSG ratio: vs control
Experimental: Measurement of cellular levels of GSH and GSSG in IMR90 cells—Cultivated IMR90 cells (≈3×10^6) were washed once in cold PBS and resuspended in 200 μl of ice cold MSA (0.2M MSA/0.5mM diethylenetriamine pentaacetic acid, DTPA) and allowed to stand for 10 min at room temperature. Denatured proteins were removed by centrifugation and the supernatant was filtered with 30,000 D MW cut-off Ultrafree filters (Millipore) before injection. Fifty microliters were injected and separated on an HPLC column (3-μm 0.46×15cm Suplecosil LC18-DB, Supelco, Bellefonte, Pa.) with a flow rate of 1 ml/min using a mobile phase consisting of 25mM NaH2PO4, 5 mM octane sulfonic acid, and 2% acetonitrile, adjusted to pH 2.7 with phosphoric acid (26). An ESA model 5100A Coulochem detector, 5020 guard cell and model 5010 analytical cell combination was used for analysis. Oxidation potentials of 900 mV, 400 mV and 880 mV were used for guard cell, electrode 1 and 2, respectively. Full-scale output was 10 μA and peak areas were compared using commercial GSH and GSSG as standards.

IMR90 cells [6] = experiment: Senescence-dependent change in mitochondria of IMR90 cells, Rho123 accumulation by FACS; assay type: cell-based, human; conditions: for Rho123, AFU/PDL (rate of Rho123 accumulation per PDL): 100 μM, linear regression 26-50 PDLs; for Decrease of the rate of Rho123 accumulation as a function of senescence: vs control
Experimental: as §1

IMR90 cells [7] = experiment: H2O2-induced senescence of IMR90 cells; assay type: cell-based, human; conditions: 20 μM or 30 μM H2O2 once a week, cells continuously treated
Experimental: To determine the effect of H2O2 on the replicative life span, cells were first seeded with fresh medium with or without N-hydroxylamines (see above) for a week. Next, cells grown with or without N-hydroxylamines were each split into two additional groups and then either; 1) treated with 20 or 30 μM H2O2 or 2) without treatment with H2O2.

in vivo = conditions: male, C57BL/6J and DBA/2J, mouse, in vivo
Experimental: C57BL/6J and DBA/2J male mice (35-40 g) are tested for the acute lethal effects of adriamycin and the prevention of acute lethality by pretreatment doses of subject hydroxylamines. Mice are injected i.p with either saline or subject hydroxylamines 30 minutes prior to administration of adriamycin.

CC(C)NO [Example 1, N-Isopropylhydroxylamine]
Inhibition of Aβ(1-40) beta-pleated sheet formation (Aβ(1-40)): inhibit

ONC1CCCCC1 [Example 3, N-Cyclohexylhydroxylamine]
Inhibition of Aβ(1-40) beta-pleated sheet formation (Aβ(1-40)): inhibit

CC1(C)CC(O)CC(C)(C)N1[O] [Example 4-OH-TEMPO, 4-hydroxy-2,2,6,6-tetramethylpiperidine-1-oxyl]
Delay of replicative senescence (IMR90 cells [1]): did not delay the replicative senescence
Delay of senescence of IMR90 cells (in words) (IMR90 cells [2]): none
Toxicity to the cells (IMR90 cells [2]): toxic

NO [HNHOH, hydroxylamine]
Anticancer activity [3]: possesses anticancer activity
Senescence [3]: delayed senescence

ONCc1ccccc1 [NBHA, N-benzyl hydroxylamine]
DCFH, AFU/PDL (rate of DCFH oxidation per PDL) (IMR90 cells [4]): 0.11 (0.08) AFU/PDL
Percent of decrease in the rate of oxidants formation from control (IMR90 cells [4]): 95%
GSH (IMR90 cells [5]): 48.4 ± 3.4
GSH/GSSG (IMR90 cells [5]): 134.4
GSSG (IMR90 cells [5]): 0.36 ± 0.015
Increase of the GSH/GSSG ratio (IMR90 cells [5]): 90.4%
Rho123, AFU/PDL (rate of Rho123 accumulation per PDL) (IMR90 cells [6]): 9.7 (0.86) AFU/PDL
Decrease of the rate of Rho123 accumulation as a function of senescence (IMR90 cells [6]): 69%
Delay of senescence of IMR90 cells (in words) (IMR90 cells [2]): active; also recorded: able to delay the senescence
H2O2-induced senescence (IMR90 cells [7]): attenuated

CNO [NMHA, N-methyl hydroxylamine]
DCFH, AFU/PDL (rate of DCFH oxidation per PDL) (IMR90 cells [4]): 0.45 (0.3) AFU/PDL
Percent of decrease in the rate of oxidants formation from control (IMR90 cells [4]): 79%
GSH (IMR90 cells [5]): 52.15 ± 6.7
GSH/GSSG (IMR90 cells [5]): 137.2
GSSG (IMR90 cells [5]): 0.38 ± 0.08
Increase of the GSH/GSSG ratio (IMR90 cells [5]): 94%
Rho123, AFU/PDL (rate of Rho123 accumulation per PDL) (IMR90 cells [6]): 15.3 (0.86) AFU/PDL
Decrease of the rate of Rho123 accumulation as a function of senescence (IMR90 cells [6]): 52%
Delay of senescence of IMR90 cells (in words) (IMR90 cells [2]): active; also recorded: able to delay the senescence

NOCc1ccccc1 [O-benzyl hydroxylamine]
Delay of senescence of IMR90 cells (in words) (IMR90 cells [2]): accelerate senescence

CON [O-methyl hydroxylamine]
Delay of senescence of IMR90 cells (in words) (IMR90 cells [2]): accelerate senescence

CC(C)(C)ON [O-t-butyl hydroxylamine]
Delay of senescence of IMR90 cells (in words) (IMR90 cells [2]): accelerate senescence

CC1(C)CCCC(C)(C)N1[O] [TEMPO, 2,2,6,6-tetramethyl-piperidine-1-oxyl]
Delay of replicative senescence (IMR90 cells [1]): did not delay the replicative senescence
Delay of senescence of IMR90 cells (in words) (IMR90 cells [2]): none
Toxicity to the cells (IMR90 cells [2]): toxic

COc1cccc2c1C(=O)c1c(O)c3c(c(O)c1C2=O)C[C@@](O)(C(=O)CO)C[C@@H]3O[C@H]1C[C@H](N)[C@H](O)[C@H](C)O1 [adriamycin]
Acute lethality (dose range) (in vivo): 10 to 30 mg/kg
LD50 (in vivo): 25 mg/kg

O=C1O[C@H]([C@@H](O)CO)C(O)=C1O [ascorbic acid]
Delay of senescence of IMR90 cells (in words) (IMR90 cells [2]): none

O=Cc1ccccc1 [benzaldehyde]
Delay of senescence of IMR90 cells (in words) (IMR90 cells [2]): without effect or toxic at high concentrations
Delay of senescence of IMR90 cells (in words) (IMR90 cells [2]; listed as Benzaldehyde): without effect and in high concentrations was toxic

CC(C)(C)N=O [tNB, nitroso-tert-butane]
Effect on IMR90 cells (IMR90 cells [2]; 10 μM in medium): no effect

catalase
Delay of senescence of IMR90 cells (in words) (IMR90 cells [2]): none

vitamin E
Delay of senescence of IMR90 cells (in words) (IMR90 cells [2]): none
